Data as given in patent US10683299B2, “Pyrazolopyrazine and triazolopyrazine compounds for the treatment of infectious diseases” (Hoffmann-La Roche Inc., priority 2017, dated 2020).
Like-named read-outs stand apart in the source and are kept apart here.

Tested on: HBV replication in HepG2.2.15 cells
Test: HBV inhibition assay in HepG2.2.15 cells (extracellular HBV DNA by qPCR)
Type: cell-based, Hepatitis B virus
Details: five days after compound treatment, extracellular HBV DNA in culture supernatant by qPCR, read-out: EC50 (effective compound concentration at which HBV replication was inhibited by 50%)
Text: HepG2.2.15 is a stably-transfected cell line containing the HBV genome. It is derived from the hepatoblastoma cell line Hep G2 (American Type Culture Collection, ATCC® HB-8065™) by the published procedures described in reference: M A Selles et al. Proc. Natl. Acad. Sci. USA 1987, 84, 1005-1009. The cell line was maintained in Dulbecco's modified Eagle's medium and nutrient mixture F-12 (DMEM/F-12, Gibco, Cat. #: 11320-033) supplemented with 10% fetal bovine serum (Gibco, Cat. #:10099-141), 100 U/mL penicillin, 100 μg/mL streptomycin (Gibco, Cat. #:15140-122), and 0.3 mg/mL of G418 Sulfate (Gibco, Cat. #: 10131-027).
HepG2.2.15 cells were seeded into 96-well plates at a density of 3×10^4 cells per well in culture media of 100 μL DMEM/F-12 supplemented with 2.5% fetal bovine serum, 100 U/mL penicillin, 100 μg/mL streptomycin and cultured overnight at 37° C. The test compounds were serially half-log diluted in DMSO, then diluted 100 times in culture media. 100 μL culture media containing diluted compounds were added into the plates to reach 0.5% final concentration of DMSO in every well. Five days after compound treatment, culture supernatant was collected for further analysis.
For quantitative PCR detection of extracellular HBV DNA, culture supernatant was processed by 500 μg/mL Proteinase K (Sigma, Cat. #:P2308) digestion at 50° C. for 1 hour. After heat inactivation of the enzyme at 95° C. for 15 minutes, the samples were subjected to HBV DNA quantification by qPCR. The effective compound concentration at which HBV replication was inhibited by 50% (EC50) was determined.

[1] = Hepatitis B virus, HepG2.2.15, 120 h

CC1C(O)CS(=O)(=O)N1c1cnn2c1CN(C(=O)Nc1ccnc(C(F)F)c1)[C@@H](C)C2 (stereo partly drawn) [Example 29, (6S)—N-[2-(difluoromethyl)-4-pyridyl]-3-(4-hydroxy-3-methyl-1,1-dioxo-1,2-thiazolidin-2-yl)-6-methyl-6,7-dihydro-4H-pyrazolo[1,5-a]pyrazine-5-carboxamide]
EC50 [1]: 0.32 µM

C[C@H]1Cn2ncc(N3CCC[S+]3[O-])c2CN1C(=O)Nc1cc(F)c(F)c(F)c1 (stereo partly drawn) [Example 17, (6S)-6-methyl-3-(1-oxo-1,2-thiazolidin-2-yl)-N-(3,4,5-trifluorophenyl)-6,7-dihydro-4H-pyrazolo[1,5-a]pyrazine-5-carboxamide]
EC50 [1]: 0.086 µM

CC1C(O)CS(=O)(=O)N1c1cnn2c1CN(C(=O)Nc1cc(F)c(F)c(F)c1)[C@@H](C)C2 (stereo partly drawn) [Example 28-1, (6S)-3-(4-hydroxy-3-methyl-1,1-dioxo-1,2-thiazolidin-2-yl)-6-methyl-N-(3,4,5-trifluorophenyl)-6,7-dihydro-4H-pyrazolo[1,5-a]pyrazine-5-carboxamide]
EC50 [1]: 0.021 µM

C[C@H]1Cn2ncc(N3CCCNS3(=O)=O)c2CN1C(=O)Nc1cc(F)c(F)c(F)c1 [Example 27, (6S)-3-(1,1-dioxo-1,2,6-thiadiazinan-2-yl)-6-methyl-N-(3,4,5-trifluorophenyl)-6,7-dihydro-4H-pyrazolo[1,5-a]pyrazine-5-carboxamide]
EC50 [1]: 0.044 µM

C[C@H]1Cn2ncc(N3CCCS3(=O)=O)c2CN1C(=O)Nc1cc(F)c(F)c(F)c1 [Example 1, (6S)-3-(1,1-dioxo-1,2-thiazolidin-2-yl)-6-methyl-N-(3,4,5-trifluorophenyl)-6,7-dihydro-4H-pyrazolo[1,5-a]pyrazine-5-carboxamide]
EC50 [1]: 0.0046 µM

C[C@H]1Cn2ncc(N3CCCS3(=O)=O)c2CN1C(=O)Nc1ccsc1 [Example 10, (6S)-3-(1,1-dioxo-1,2-thiazolidin-2-yl)-6-methyl-N-(3-thienyl)-6,7-dihydro-4H-pyrazolo[1,5-a]pyrazine-5-carboxamide]
EC50 [1]: 0.57 µM

CC1C(Oc2ncccn2)CS(=O)(=O)N1c1cnn2c1CN(C(=O)Nc1cc(F)c(F)c(F)c1)[C@@H](C)C2 (stereo partly drawn) [Example 30, (6S)-6-methyl-3-(3-methyl-1,1-dioxo-4-pyrimidin-2-yloxy-1,2-thiazolidin-2-yl)-N-(3,4,5-trifluorophenyl)-6,7-dihydro-4H-pyrazolo[1,5-a]pyrazine-5-carboxamide]
EC50 [1]: 0.0035 µM

CC1Cn2nnc(N3CCCS3(=O)=O)c2CN1C(=O)Nc1cc(F)c(F)c(F)c1 (single isomer, unassigned) [Example 33-1, 3-(1,1-dioxo-1,2-thiazolidin-2-yl)-6-methyl-N-(3,4,5-trifluorophenyl)-6,7-dihydro-4H-triazolo[1,5-a]pyrazine-5-carboxamide]
EC50: 0.024 µM

C[C@H]1Cn2ncc(N3CC(N4CCC[C@H]4C(=O)O)CS3(=O)=O)c2CN1C(=O)Nc1cc(F)c(F)c(F)c1 (stereo partly drawn) [Example 35, (2S)-1-[2-[(6S)-6-methyl-5-[(3,4,5-trifluorophenyl)carbamoyl]-6,7-dihydro-4H-pyrazolo[1,5-a]pyrazin-3-yl]-1,1-dioxo-1,2-thiazolidin-4-yl]pyrrolidine-2-carboxylic Acid]
EC50 [1]: 0.0067 µM

C[C@H]1Cn2ncc(N3CCCS3(=O)=O)c2CN1C(=O)Nc1ccc(Cl)c(F)c1 [Example 3, (6S)—N-(4-chloro-3-fluoro-phenyl)-3-(1,1-dioxo-1,2-thiazolidin-2-yl)-6-methyl-6,7-dihydro-4H-pyrazolo[1,5-a]pyrazine-5-carboxamide]
EC50 [1]: 0.036 µM

COC1CS(=O)(=O)N(c2cnn3c2CN(C(=O)Nc2ccnc(C(F)F)c2)[C@@H](C)C3)C1C (stereo partly drawn) [Example 32-1, (6S)—N-[2-(difluoromethyl)-4-pyridyl]-3-(4-methoxy-3-methyl-1,1-dioxo-1,2-thiazolidin-2-yl)-6-methyl-6,7-dihydro-4H-pyrazolo[1,5-a]pyrazine-5-carboxamide]
EC50 [1]: 0.17 µM

CC1CCS(=O)(=O)N1c1cnn2c1CN(C(=O)Nc1cc(F)c(F)c(F)c1)[C@@H](C)C2 (stereo partly drawn) [Example 16, (6S)-6-methyl-3-(3-methyl-1,1-dioxo-1,2-thiazolidin-2-yl)-N-(3,4,5-trifluorophenyl)-6,7-dihydro-4H-pyrazolo[1,5-a]pyrazine-5-carboxamide]
EC50 [1]: 0.009 µM

C[C@H]1Cn2ncc(N3CCCS3(=O)=O)c2CN1C(=O)NCc1ccsc1 [Example 34, (6S)-3-(1,1-dioxo-1,2-thiazolidin-2-yl)-6-methyl-N-(3-thienylmethyl)-6,7-dihydro-4H-pyrazolo[1,5-a]pyrazine-5-carboxamide]
EC50 [1]: 0.099 µM

C[C@H]1Cn2ncc(N3CCCS3(=O)=O)c2CN1C(=O)Nc1ccc2ncsc2c1 [Example 9, (6S)—N-(1,3-benzothiazol-6-yl)-3-(1,1-dioxo-1,2-thiazolidin-2-yl)-6-methyl-6,7-dihydro-4H-pyrazolo[1,5-a]pyrazine-5-carboxamide]
EC50 [1]: 0.26 µM

C[C@H]1Cn2ncc(N3CCCS3(=O)=O)c2CN1C(=O)NCc1ccccc1 [Example 11, (6S)—N-benzyl-3-(1,1-dioxo-1,2-thiazolidin-2-yl)-6-methyl-6,7-dihydro-4H-pyrazolo[1,5-a]pyrazine-5-carboxamide]
EC50 [1]: 0.11 µM

C[C@H]1Cn2ncc(N3CC(O)CS3(=O)=O)c2CN1C(=O)Nc1cc(F)c(F)c(F)c1 (stereo partly drawn) [Example 18, (6S)-3-(4-hydroxy-1,1-dioxo-1,2-thiazolidin-2-yl)-6-methyl-N-(3,4,5-trifluorophenyl)-6,7-dihydro-4H-pyrazolo[1,5-a]pyrazine-5-carboxamide]
EC50 [1]: 0.012 µM

C[C@H]1Cn2ncc(N3CCN(C)S3(=O)=O)c2CN1C(=O)Nc1cc(F)c(F)c(F)c1 [Example 20, (6S)-6-methyl-3-(5-methyl-1,1-dioxo-1,2,5-thiadiazolidin-2-yl)-N-(3,4,5-trifluorophenyl)-6,7-dihydro-4H-pyrazolo[1,5-a]pyrazine-5-carboxamide]
EC50 [1]: 0.017 µM
